Data taken from PubChem BioAssay (NCI).
Several values for one entry are separate records, joined by “and”; a condition that tells them apart may be missing. Equal values may be shown once.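 96-well plates; 48 h exposure; 5 concentrations. Endpoints by linear interpolation between flanking doses. Not reached: highest tested concentration assigned. GI50 = concentration required for 50% inhibition of growth. TGI: total growth inhibition.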

How the values were obtained:
Experiment in all cases: NCI anticancer screen, dose series, 48 h
HCT-116 colon = tested on: HCT-116 colon
MDA-MB-231 breast = tested on: MDA-MB-231 breast
SF-539 CNS = tested on: SF-539 CNS
K-562 leukemia = tested on: K-562 leukemia
SK-MEL-2 melanoma = tested on: SK-MEL-2 melanoma
RXF 393 renal = tested on: RXF 393 renal
SN12C renal = tested on: SN12C renal
T-47D breast = tested on: T-47D breast
CCRF-CEM leukemia = tested on: CCRF-CEM leukemia
UO-31 renal = tested on: UO-31 renal

Structure (SMILES)	TGI (HCT-116 colon)	TGI (MDA-MB-231 breast)	TGI (SF-539 CNS)	TGI (K-562 leukemia)	TGI (SK-MEL-2 melanoma)	TGI (RXF 393 renal)	TGI (SN12C renal)	TGI (T-47D breast)	TGI (CCRF-CEM leukemia)	TGI (UO-31 renal)	GI50 (K-562 leukemia)
Oc1[nH]c2ccc(Br)cc2c1N=NC(=S)Nc1ccc(F)cc1	18 µM	35.5 µM	38.8 µM	67.3 µM	25.9 µM	13.2 µM	> 100 µM	35.4 µM	–	–	–
C(/C=C(\Nc1ccccc1)C12CC3CC(CC(C3)C1)C2)=Nc1ccccc1	27 µM	34.1 µM	–	35.1 µM	–	35.4 µM	36.2 µM	99.6 µM	8.38 µM	29.3 µM	–
CC12CCC3C(CCC4CC(OC(=O)Cc5ccc(N(CCCl)CCCl)cc5)CCC43C)C1CCC(=O)N2 (centres undefined)	28.3 µM	–	29.4 µM	35.3 µM	29.8 µM	28 µM	29.6 µM	–	22.7 µM	33.9 µM	–
COc1c(O)c2c3c(c(C)cc(O)c3c1O)C(=O)C(O)(C(C)(C)C(C)=O)C2=O (centres undefined)	> 100 µM	–	> 100 µM	> 100 µM	> 100 µM	> 100 µM	> 100 µM	–	> 100 µM	> 100 µM	34.4 µM and > 100 µM
CC1=C2C(=C[C@H]3[C@]4(C)CCCC(C)(C)[C@H]4CC[C@]34O[C@H]24)OC1=O	> 100 µM	> 100 µM	–	> 100 µM	> 100 µM	> 100 µM	> 100 µM	–	–	> 100 µM	–
O=C(CN(c1ccccc1)c1ccccc1)N1c2ccccc2C2C=CC=CC21 (centres undefined)	45.2 µM	–	43.8 µM	> 51.5 µM	38.8 µM	> 54.7 µM	34.4 µM	–	> 36.3 µM	> 49.9 µM	–
CCN1CCCC(NCc2c3ccccc3c(CNC3CCCN(CC)C3)c3ccccc23)C1 (centres undefined)	23.3 µM	–	35.7 µM	42.6 µM	11.7 µM	11.8 µM	40.3 µM	–	41.4 µM	53.4 µM	–
CCN(CC)CCCNC(=O)c1ccc([N+](=O)[O-])cc1O	–	–	> 100 µM	> 100 µM	> 100 µM	> 100 µM	> 100 µM	–	> 100 µM	> 100 µM	–
CCOC(=O)c1c(-c2ccccc2)c(-c2ccccc2)cn1C	–	–	> 10 µM	> 10 µM	> 10 µM	> 10 µM	> 10 µM	–	> 10 µM	> 10 µM	–
S=C(/N=c1\sc(Nc2ccc(Cl)cc2)nc2sc3c(c12)CCN(N1CCc2c(sc4nc(Nc5ccc(Cl)cc5)s/c(=N\C(=S)Nc5ccc(Cl)cc5)c24)C1)C3)Nc1ccc(Cl)cc1	31.7 µM	35.1 µM	35.6 µM	–	52.2 µM	36.7 µM	38.5 µM	–	–	> 100 µM	–
C(=Nc1ccc(-c2nc3ccccc3o2)cc1)c1ccco1	> 100 µM	–	> 100 µM	–	> 100 µM	> 100 µM	> 100 µM	> 100 µM	–	> 100 µM	–
N/C(=N\S(=O)(=O)c1c(C(F)(F)F)cccc1C(F)(F)F)Nc1ccc(Cl)cc1	> 100 µM	48.6 µM	> 100 µM	> 100 µM	29.3 µM	> 100 µM	78.1 µM	> 100 µM	–	6.35 µM	–
CC(=O)c1cccn1/C=C(\OC(=O)OC(C)(C)C)c1ccc[nH]1	> 100 µM	> 100 µM	–	> 100 µM	> 100 µM	> 100 µM	> 100 µM	> 100 µM	> 100 µM	> 100 µM	–
CC(C(=O)N1C(=O)N(C(=O)C(C)C(O)c2ccccc2)C2CCCCC21)C(O)c1ccccc1 (centres undefined)	> 100 µM	–	–	–	> 100 µM	> 100 µM	> 100 µM	–	> 100 µM	> 100 µM	–
COc1ccc(S(=O)(=O)N2C(=O)CCC2C(=O)NN)cc1 (centres undefined)	> 100 µM	> 100 µM	> 100 µM	> 100 µM	> 100 µM	–	> 100 µM	> 100 µM	> 100 µM	> 100 µM	–
Cc1ccc([N+](=O)[O-])cc1N=NC(=O)NNc1cc([N+](=O)[O-])ccc1C	36.8 µM	47.8 µM	–	> 100 µM	> 100 µM	66.6 µM	–	> 100 µM	40.2 µM	78.9 µM	–
CCC1=CC2CN3Cn4c(c(COCc5c6n(c7ccccc57)CN5CC7C=C(CC)C5C6(C(=O)OC)C7)c5ccccc54)C(C(=O)OC)(C2)C13	> 100 µM	–	–	> 100 µM	> 100 µM	> 100 µM	> 100 µM	–	> 100 µM	> 100 µM	–
NC(CC1=CS(=O)(=O)c2ccc(Cl)cc21)C(=O)O (centres undefined)	> 100 µM	> 100 µM	> 100 µM	> 100 µM	> 100 µM	> 100 µM	> 100 µM	> 100 µM	–	–	–
CCCCn1cnc2c(c(CC#N)nn2-c2ccccc2)c1=N	> 100 µM	> 100 µM	–	> 100 µM	62.1 µM	> 100 µM	> 100 µM	> 100 µM	> 100 µM	> 100 µM	–
C=C1c2cc3c(cc2CC12Cc1cc4c(cc1C2=O)CCC4)CCC3 (centres undefined)	> 100 µM	> 100 µM	> 100 µM	> 100 µM	> 100 µM	> 100 µM	–	> 100 µM	> 100 µM	> 100 µM	–
O=C1CC(C(O)(C(F)(F)F)C(F)(F)Cl)CCC1C(O)(C(F)(F)F)C(F)(F)Cl (centres undefined)	> 10 µM	> 10 µM	> 10 µM	> 10 µM	> 10 µM	> 10 µM	> 10 µM	> 10 µM	> 10 µM	–	–
CN(Cc1ccccc1)c1cc(=O)n(C)c(=O)[nH]1	> 100 µM	> 100 µM	> 100 µM	> 100 µM	> 100 µM	–	> 100 µM	> 100 µM	> 100 µM	> 100 µM	–
NCCCN1CCN(CCCNc2ccc3nnn4c5ccccc5c(=O)c2c34)CC1	37.7 µM	29.1 µM	36.2 µM	> 100 µM	36.1 µM	–	30.7 µM	> 100 µM	35.7 µM	90.7 µM	–
CC(=O)Oc1cc(C(F)(F)F)ccc1C(=O)OC1(C)OC(=O)c2ccc(C(F)(F)F)cc2O1 (centres undefined)	> 100 µM	> 100 µM	> 100 µM	> 100 µM	–	> 100 µM	> 100 µM	> 100 µM	> 100 µM	> 100 µM	–
